ChEMBL document CHEMBL3885881, “DrugMatrix”

Organism: Rattus norvegicus
Assay: DrugMatrix - Regimen: Daily Repeat
Type: toxicity, organism-based, Sprague-Dawley
Parameters: regimen Daily Repeat, gender Male, age 6-8 weeks
Details: in vivo, po, route oral GAVAGE, vehicle .5 % CMC; for ABSOLUTE BASOPHIL / ABSOLUTE EOSINOPHIL / ABSOLUTE LYMPHOCYTE / ABSOLUTE MONOCYTE / ABSOLUTE SEGMENTED NEUTROPHIL / BASOPHIL / EOSINOPHIL / ERYTHROCYTE COUNT / HEMATOCRIT / HEMOGLOBIN / LEUKOCYTE COUNT / LYMPHOCYTE / MEAN CORPUSCULAR HEMOGLOBIN / MEAN CORPUSCULAR HEMOGLOBIN CONCENTRATION / MEAN CORPUSCULAR VOLUME / MONOCYTE / NEUTROPHIL / NUCLEATED RED BLOOD CELLS / PLATELET COUNT: tissue Blood; for ALANINE AMINOTRANSFERASE / ALBUMIN / ALKALINE PHOSPHATASE / ASPARTATE AMINOTRANSFERASE / BLOOD UREA NITROGEN / CARBON DIOXIDE / CHLORIDE / CHOLESTEROL / CREATINE PHOSPHOKINASE / CREATININE / GLUCOSE / LACTATE DEHYDROGENASE / LIPASE / PHOSPHORUS / SODIUM / TOTAL BILIRUBIN / TOTAL PROTEIN / URIC ACID: tissue Plasma
[1] = 20 mg/kg, 72 h, dose level Low, time 3 day
[2] = 20 mg/kg, 120 h, dose level Low, time 5 day
[3] = 2000 mg/kg, 72 h, dose level High, time 3 day
[4] = 2000 mg/kg, 120 h, dose level High, time 5 day

## NCCCC[C@H](N[C@@H](CCc1ccccc1)C(=O)O)C(=O)N1CCC[C@H]1C(=O)O [LISINOPRIL ANHYDROUS]
[1]
  ABSOLUTE BASOPHIL: 0 CELLS/uL
  ABSOLUTE EOSINOPHIL: 69 CELLS/uL
  ABSOLUTE LYMPHOCYTE: 9482.67 CELLS/uL
  ABSOLUTE MONOCYTE: 143.67 CELLS/uL
  ABSOLUTE SEGMENTED NEUTROPHIL: 904.67 CELLS/uL
  BASOPHIL: 0%
  EOSINOPHIL: 0.67%
  ERYTHROCYTE COUNT: 5.65 x10E6/uL
  HEMATOCRIT: 34.1%
  HEMOGLOBIN: 13.3 G/DL
  LEUKOCYTE COUNT: 10.6 x10E3/uL
  LYMPHOCYTE: 89.33%
  MEAN CORPUSCULAR HEMOGLOBIN: 23.63 pg
  MEAN CORPUSCULAR HEMOGLOBIN CONCENTRATION: 39 G/DL
  MEAN CORPUSCULAR VOLUME: 60.5 fL
  MONOCYTE: 1.33%
  NEUTROPHIL: 8.67%
  NUCLEATED RED BLOOD CELLS: 0 /100WBC
  PLATELET COUNT: 1392 x10E3/uL
  ALANINE AMINOTRANSFERASE: 44 u/L
  ALBUMIN: 4.1 G/DL
  ALKALINE PHOSPHATASE: 387 u/L
  ASPARTATE AMINOTRANSFERASE: 70 u/L
  BLOOD UREA NITROGEN: 22.67 mg/dL
  CARBON DIOXIDE: 23.33 mmol/L
  CHLORIDE: 101 MEQ/L
  CHOLESTEROL: 80.33 mg/dL
  CREATINE PHOSPHOKINASE: 236.67 u/L
  CREATININE: 0.18 mg/dL
  GLUCOSE: 166 mg/dL
  LACTATE DEHYDROGENASE: 94.33 u/L
  LIPASE: 10 u/L
  PHOSPHORUS: 11.87 mg/dL
  SODIUM: 140.73 MEQ/L
  TOTAL BILIRUBIN: 0.23 mg/dL
  TOTAL PROTEIN: 5.83 G/DL
  URIC ACID: 2.13 mg/dL
[2]
  ABSOLUTE BASOPHIL: 0 CELLS/uL
  ABSOLUTE EOSINOPHIL: 0 CELLS/uL
  ABSOLUTE LYMPHOCYTE: 11890.67 CELLS/uL
  ABSOLUTE MONOCYTE: 94.67 CELLS/uL
  ABSOLUTE SEGMENTED NEUTROPHIL: 1714.67 CELLS/uL
  BASOPHIL: 0%
  EOSINOPHIL: 0%
  ERYTHROCYTE COUNT: 6.1 x10E6/uL
  HEMATOCRIT: 36.67%
  HEMOGLOBIN: 14.77 G/DL
  LEUKOCYTE COUNT: 13.7 x10E3/uL
  LYMPHOCYTE: 87%
  MEAN CORPUSCULAR HEMOGLOBIN: 24.23 pg
  MEAN CORPUSCULAR HEMOGLOBIN CONCENTRATION: 40.3 G/DL
  MEAN CORPUSCULAR VOLUME: 60.07 fL
  MONOCYTE: 0.67%
  NEUTROPHIL: 12.33%
  NUCLEATED RED BLOOD CELLS: 0 /100WBC
  PLATELET COUNT: 1320.33 x10E3/uL
  ALANINE AMINOTRANSFERASE: 51.33 u/L
  ALBUMIN: 4.53 G/DL
  ALKALINE PHOSPHATASE: 401 u/L
  ASPARTATE AMINOTRANSFERASE: 81.67 u/L
  BLOOD UREA NITROGEN: 22.33 mg/dL
  CARBON DIOXIDE: 27.67 mmol/L
  CHLORIDE: 96.33 MEQ/L
  CHOLESTEROL: 70.67 mg/dL
  CREATINE PHOSPHOKINASE: 297.33 u/L
  CREATININE: 0.22 mg/dL
  GLUCOSE: 158 mg/dL
  LACTATE DEHYDROGENASE: 249 u/L
  LIPASE: 9.67 u/L
  PHOSPHORUS: 11.77 mg/dL
  SODIUM: 139.17 MEQ/L
  TOTAL BILIRUBIN: 0.17 mg/dL
  URIC ACID: 2 mg/dL
[3]
  ABSOLUTE BASOPHIL: 0 CELLS/uL
  ABSOLUTE EOSINOPHIL: 42.33 CELLS/uL
  ABSOLUTE LYMPHOCYTE: 11490 CELLS/uL
  ABSOLUTE MONOCYTE: 124.67 CELLS/uL
  ABSOLUTE SEGMENTED NEUTROPHIL: 1076.33 CELLS/uL
  BASOPHIL: 0%
  EOSINOPHIL: 0.33%
  ERYTHROCYTE COUNT: 5.63 x10E6/uL
  HEMATOCRIT: 33.57%
  HEMOGLOBIN: 13.17 G/DL
  LEUKOCYTE COUNT: 12.73 x10E3/uL
  LYMPHOCYTE: 90%
  MEAN CORPUSCULAR HEMOGLOBIN: 23.43 pg
  MEAN CORPUSCULAR HEMOGLOBIN CONCENTRATION: 39.27 G/DL
  MEAN CORPUSCULAR VOLUME: 59.63 fL
  MONOCYTE: 1%
  NEUTROPHIL: 8.67%
  NUCLEATED RED BLOOD CELLS: 0 /100WBC
  PLATELET COUNT: 1324.33 x10E3/uL
  ALANINE AMINOTRANSFERASE: 40.33 u/L
  ALBUMIN: 4.03 G/DL
  ALKALINE PHOSPHATASE: 322.67 u/L
  ASPARTATE AMINOTRANSFERASE: 68 u/L
  BLOOD UREA NITROGEN: 26.67 mg/dL
  CARBON DIOXIDE: 24.67 mmol/L
  CHLORIDE: 101.33 MEQ/L
  CHOLESTEROL: 71.67 mg/dL
  CREATINE PHOSPHOKINASE: 262 u/L
  CREATININE: 0.29 mg/dL
  GLUCOSE: 155 mg/dL
  LACTATE DEHYDROGENASE: 122.67 u/L
  LIPASE: 9.67 u/L
  PHOSPHORUS: 11.5 mg/dL
  SODIUM: 141.1 MEQ/L
  TOTAL BILIRUBIN: 0.13 mg/dL
  TOTAL PROTEIN: 5.77 G/DL
  URIC ACID: 1.53 mg/dL
[4]
  ABSOLUTE BASOPHIL: 0 CELLS/uL
  ABSOLUTE EOSINOPHIL: 43.33 CELLS/uL
  ABSOLUTE LYMPHOCYTE: 10946.67 CELLS/uL
  ABSOLUTE MONOCYTE: 86.67 CELLS/uL
  ABSOLUTE SEGMENTED NEUTROPHIL: 1123.33 CELLS/uL
  BASOPHIL: 0%
  EOSINOPHIL: 0.33%
  ERYTHROCYTE COUNT: 5.62 x10E6/uL
  HEMATOCRIT: 34.17%
  HEMOGLOBIN: 13.67 G/DL
  LEUKOCYTE COUNT: 12.2 x10E3/uL
  LYMPHOCYTE: 89.67%
  MEAN CORPUSCULAR HEMOGLOBIN: 24.37 pg
  MEAN CORPUSCULAR HEMOGLOBIN CONCENTRATION: 40 G/DL
  MEAN CORPUSCULAR VOLUME: 60.8 fL
  MONOCYTE: 0.67%
  NEUTROPHIL: 9.33%
  NUCLEATED RED BLOOD CELLS: 0 /100WBC
  PLATELET COUNT: 1374 x10E3/uL
  ALANINE AMINOTRANSFERASE: 43.33 u/L
  ALBUMIN: 4.17 G/DL
  ALKALINE PHOSPHATASE: 336.33 u/L
  ASPARTATE AMINOTRANSFERASE: 74 u/L
  BLOOD UREA NITROGEN: 29.67 mg/dL
  CARBON DIOXIDE: 22.67 mmol/L
  CHLORIDE: 103 MEQ/L
  CHOLESTEROL: 72 mg/dL
  CREATINE PHOSPHOKINASE: 214 u/L
  CREATININE: 0.25 mg/dL
  GLUCOSE: 167.67 mg/dL
  LACTATE DEHYDROGENASE: 146.33 u/L
  LIPASE: 9.67 u/L
  PHOSPHORUS: 10.97 mg/dL
  SODIUM: 141.47 MEQ/L
  TOTAL BILIRUBIN: 0.13 mg/dL
  TOTAL PROTEIN: 5.97 G/DL
  URIC ACID: 1.9 mg/dL
